Drawing on ChEMBL document CHEMBL1144525, “Prediction of binding for a kind of non-peptic HCV NS3 serine protease inhibitors from plants by molecular docking and MM-PBSA method” (Bioorg Med Chem, 2007), this text covers IC50 for 5 compounds.

This assay can be described thus: Inhibition of HCV NS3 serine protease. Set-up: species or system Hepacivirus hominis.

Molecules are shown by their SMILES.

For `O=C(OC[C@H]1O[C@@H](OC(=O)c2cc(O)c(O)c(O)c2)[C@H](O)[C@@H](OC(=O)c2cc(O)c(O)c(O)c2)[C@@H]1O)c1cc(O)c(O)c(O)c1`, the IC50 (as a rule, the point on the concentration scale where inhibition reaches its midpoint) turned out to be 10100 nM.

With `O=C(Oc1c(O)cc(C(=O)O[C@H]2[C@H](OC(=O)c3cc(O)c(O)c(O)c3)O[C@H](CO)[C@@H](OC(=O)c3cc(O)c(O)c(O)c3)[C@@H]2OC(=O)c2cc(O)c(O)c(O)c2)cc1O)c1cc(O)c(O)c(O)c1`, 660 nM corresponded to half-maximal inhibition (IC50).

Compound `O=C(Oc1cc(C(=O)O[C@@H]2O[C@H](CO)[C@@H](OC(=O)c3cc(O)c(O)c(O)c3)[C@H](OC(=O)c3cc(O)c(O)c(O)c3)[C@H]2OC(=O)c2cc(O)c(O)c(O)c2)cc(O)c1O)c1cc(O)c(O)c(O)c1` yielded an IC50 of 680 nM.

On to `O=C(O[C@@H]1O[C@H](CO)[C@@H](OC(=O)c2cc(O)c(O)c(O)c2)[C@H](OC(=O)c2cc(O)c(O)c(O)c2)[C@H]1O)c1cc(O)c(O)c(O)c1`, for which half-maximal inhibition (IC50) required 1000 nM.

Turning to `O=C(OC[C@H]1O[C@@H](O)[C@H](O)[C@@H](OC(=O)c2cc(O)c(O)c(O)c2)[C@@H]1O)c1cc(O)c(O)c(O)c1`, the concentration for half-maximal inhibition (IC50) turned out to be 950000 nM.
